≈ marks a conversion by molar mass, not a printed value. Where two headings read alike, the source gives them in different places. Numbered stars: 1 amine (or outer) side, 2 acyl side, 3 side chain; on linkers, the order of the positions; unused ones are H or OH. Bridge positions count the residues as written; N and C are the ends. Square brackets hold non-standard residues; d marks the D form. Peptide text beside a SMILES is read from it. * marks the point of attachment. Orn(4R-OH,5R-OH) = O=C([C@H](C[C@@H](O)[C@@H](O)N[*:3])N[*:1])[*:2]; hTyr(3S-OH,4S-OH) = N[C@H](C(=O)O)[C@H](O)[C@@H](O)c1ccc(O)cc1; Pro(3S-OH,4S-Me) = C[C@H]1CN[C@H](C(=O)O)[C@H]1O; Benzoyl(4-octyloxy) = CCCCCCCCOc1ccc(C(=O)*)cc1; Hyp = O=C(O)[C@@H]1C[C@@H](O)CN1
What was measured:
[1] = tested on: Candida albicans; assay: In vitro fungicidal activity vs. Candida albicans; details: Candida albicans
[2] = tested on: S. cerevisiae AD1-9; assay: IC50 (50% growth inhibition) of diyne compounds; type: cell-based; details: strain AD1-9; for IC50: Saccharomyces cerevisiae, AD19
Method: (§1) The inhibition is partly measured by minimum inhibitory and minimum fungicidal concentration (MIC and MFC, respectively) and partly as IC50 (i.e. concentration required for 50% inhibition).
(§2) IC50 against two different S. cerevisiae strains and two different C. albicans strains by a number of diyne compounds was determined and the results are shown in Table 17.

[3] = tested on: C. albicans DSY1024; assay: IC50 (50% growth inhibition) of diyne compounds; type: cell-based; details: Candida albicans, DSY1024, read-out: C. albicans IC50
Method: as §1, §2

[4] = tested on: S. cerevisiae 2229-5C; assay: IC50 (50% growth inhibition) of diyne compounds; type: cell-based; details: strain 2229-5C; for IC50: Saccharomyces cerevisiae, 22295C; for value in brackets after the IC50 bound (not explained): at the bound concentration
Method: as §1, §2

[5] = tested on: C. albicans SC5314; assay: IC50 (50% growth inhibition) of diyne compounds; type: cell-based; details: Candida albicans; strain SC5314
Method: as §1, §2

[6] = tested on: (1,3)β-Glucan Synthase; assay: Inhibition of fungal cell wall synthesis enzymes; type: biochemical; details: 20.6 μg/ml
Source text: (§3) Specific inhibitors of each enzyme served as positive controls (Cilofungin, a β-glucan synthase inhibitor and nikkomycin Z, a chitin synthase inhibitor).

[7] = tested on: Chitin Synthase; assay: Inhibition of fungal cell wall synthesis enzymes; type: biochemical; details: 9.9 μg/ml
Source text: as §3

[8] = tested on: C. albicans SC5314; assay: MIC versus reference Candida strains (broth micro dilution); type: cell-based
[9] = tested on: C. parapsilosis ATCC-90018; assay: as above; details: Lodderomyces parapsilosis, ATCC90018
[10] = tested on: C. glabrata ATCC-90030; assay: as above; details: Nakaseomyces glabratus, ATCC90030
[11] = tested on: C. tropicalis ATCC-750; assay: as above; details: Candida tropicalis, ATCC750
[12] = tested on: C. krusei ATCC-6258; assay: as above; details: Pichia kudriavzevii, ATCC6258
[13] = tested on: C. albicans ATCC-24433; assay: as above; details: Candida albicans, ATCC24433
[14] = tested on: C. parapsilosis ATCC-22019; assay: as above; details: Lodderomyces parapsilosis, ATCC22019
[15] = tested on: C. albicans ATCC-90028; assay: as above; details: Candida albicans, ATCC90028
[16] = tested on: S. cerevisiae; assay: Doubling times of S. cerevisiae; type: cell-based; details: 10 μg/ml oleic acid alone
Method: S. cerevisiae was cultured in the presence of 1 and 10 μg/ml of the potassium salt, 10 μg/ml oleic acid and 1 μg/ml of the potassium salt combined with 10 μg/ml oleic acid.
When S. cerevisiae was cultured in the presence of 1 and 10 μg/ml compound IV″, the doubling times increased to 2.4 h and 4.2 h, respectively, compared to 2 h for the untreated control. The addition of 10 μg/ml oleic acid, sodium salt, to 1 μg/ml compound IV″ reversed the doubling time to 2 h as observed for the untreated control or 10 μg/ml oleic acid, sodium salt alone.

[17] = tested on: OLE1; assay: OLE1 expression by real time PCR; type: cell-based, S. cerevisiae; details: 10 μg/ml oleic acid alone
Method: The expression of OLE1 was determined by real time PCR 10, 60, 120 and 240 min after compound addition (Knechtle, P. and Greve, K., 2009). OLE1 transcript levels were calibrated to the expression of the tubulin gene (TUB1) and normalized to the OLE1 expression at 10 min without compound addition (FIG. 17(a)).
The expression of the OLE1 gene was determined by real time PCR 10, 60, 120 and 240 min for the conditions a.-e., as indicated in Table 3 above. OLE1 transcript levels were calibrated to the expression of the tubulin gene (TUB1) and normalized to the OLE1 expression at 10 min without compound addition. See FIG. 17a showing time dependent expressions of OLE1 in response to compound IV″. Conditions a.-e. are listed in Table 3 above, numbers indicate time intervals in minutes. Expressions of OLE1 are given as multiples of the expression at 10 min, condition a. […] 10 μg/ml oleic acid compensated for the OLE1 expression increase caused by 1 μg/ml compound IV alone. Compound IV″ dependent up-regulation of OLE1 expression thus confirms that compound IV″ is acting as an inhibitor of the Ole1 protein. The antagonistic effect of oleic acid found in the susceptibility assays, is reflected mechanistically in this experiment by a down-regulation of the target Ole1 protein through oleic acid.

Nc1nc(=O)[nH]cc1F [5-fluorocytosine]
Fungicidal Concentration [1]: 1563 ng/mL | MIC90 ([1]; 24 h, read-out: MIC90 24 h): 0.098 µg/mL (≈ 0.759 µM) | MIC90 ([1]; 48 h, read-out: MIC90 48 h): 0.195 µg/mL (≈ 1.51 µM)

O=C(O)CCCCC/C=C\C#CC#Cc1ccco1 [(Z)-12-(furan-2-yl)dodeca-7-en-9,11-diynoic acid]
IC50 [2]: ~6.25 µg/mL (≈ 24.4 µM) | IC50 [3]: 1.8 µg/mL (≈ 7.02 µM) | IC50 [4]: ~50 µg/mL (≈ 195 µM) | IC50 [5]: 50 µg/mL (≈ 195 µM)

O=C(O)CCCCCC/C=C\C#CC#Cc1ccco1 [(Z)-13-(furan-2-yl)trideca-8-en-10,12-diynoic acid]
IC50 [2]: ~50 µg/mL (≈ 185 µM) | IC50 [3]: 0.5 µg/mL (≈ 1.85 µM) | IC50 [4]: > 200 µg/mL | value in brackets after the IC50 bound (not explained) [4]: 25% | IC50 [5]: > 200 µg/mL

CCOC(=O)CCCCCCC/C=C\C#CC#Cc1ccco1 [(Z)-ethyl 14-(furan-2-yl)tetradeca-9-en-11,13-diynoate]
IC50 [2]: 0.7 µg/mL (≈ 2.24 µM) | IC50 [4]: 8.9 µg/mL (≈ 28.5 µM) | IC50 [5]: 9 µg/mL (≈ 28.8 µM)

COC(=O)CCCCCCC/C=C\C#CC#Cc1ccco1 [(Z)-methyl 14-(furan-2-yl)tetradeca-9-en-11,13-diynoate]
IC50 [2]: > 0.4 µg/mL | value in brackets after the IC50 bound (not explained) ([2]; at the bound concentration): 6% | IC50 [3]: 0.19 µg/mL (≈ 0.637 µM) | IC50 [4]: > 0.4 µg/mL | value in brackets after the IC50 bound (not explained) [4]: 4% | IC50 [5]: 0.4 µg/mL (≈ 1.34 µM)

CCCCCCCCOc1ccc(C(=O)N[C@H]2C[C@@H](O)[C@@H](O)NC(=O)[C@@H]3[C@@H](O)[C@@H](C)CN3C(=O)[C@H]([C@@H](C)O)NC(=O)[C@H]([C@H](O)[C@@H](O)c3ccc(O)cc3)NC(=O)[C@@H]3C[C@@H](O)CN3C(=O)[C@H]([C@@H](C)O)NC2=O)cc1 [Cilofungin, reference compound] ({Benzoyl(4-octyloxy)}-[Orn(4R-OH,5R-OH)]T[Hyp][hTyr(3S-OH,4S-OH)]T[Pro(3S-OH,4S-Me)]; lactam 1-C)
% Inhibition, (1,3)β-Glucan Synthase [6]: 51%

C[C@@H]1C[C@@H]([C@H](O)CC2CC(=O)NC(=O)C2)C(=O)[C@@H](C)C1 [Cycloheximide]
Fungicidal Concentration [1]: 12,800,000 ng/ml | MIC90 ([1]; 24 h, read-out: MIC90 24 h): 1600 µg/mL (≈ 5690 µM) | MIC90 ([1]; 48 h, read-out: MIC90 48 h): 12800 µg/mL (≈ 45500 µM)

CC(=O)N1CCN(c2ccc(OCC3COC(Cn4ccnc4)(c4ccc(Cl)cc4Cl)O3)cc2)CC1 (centres unmarked) [Ketoconazole]
Fungicidal Concentration [1]: >800,000 ng/ml | MIC90 ([1]; 24 h, read-out: MIC90 24 h): 50 µg/mL (≈ 94.1 µM) | MIC90 ([1]; 48 h, read-out: MIC90 48 h): > 800 µg/mL

C[C@@H]([C@H](N)C(=O)N[C@H](C(=O)O)[C@H]1O[C@@H](n2ccc(=O)[nH]c2=O)[C@H](O)[C@@H]1O)[C@H](O)c1ccc(O)cn1 [Nikkomycin Z, reference compound]
% Inhibition, Chitin Synthase [7]: 61%

O=C(O)CCCCCCC/C=C/C#CC#Cc1ccco1 [VIII″, (E)-14-(furan-2-yl)tetradeca-9-en-11,13-diynoic acid]
IC50 [2]: 0.4 µg/mL (≈ 1.41 µM) | IC50 [3]: 0.004 µg/mL (≈ 0.0141 µM) | IC50 [4]: 2.7 µg/mL (≈ 9.5 µM) | IC50 [5]: 3 µg/mL (≈ 10.6 µM) | MIC [8]: 0.15 µg/mL (≈ 0.528 µM)

O=C(O)CCCCCCCc1ccccc1C#CC#Cc1ccco1 [VII″, 8-(2-(4-(furan-2-yl)buta-1,3-diynyl)phenyl)octanoic acid]
MIC [9]: > 10.2 µg/mL | MIC [10]: > 10.2 µg/mL | MIC [8]: > 10.2 µg/mL | MIC [11]: > 10.2 µg/mL | MIC [12]: > 10.2 µg/mL | MIC [13]: > 10.2 µg/mL | MIC [14]: > 10.2 µg/mL | MIC [15]: > 10.2 µg/mL

Cc1cc(C#CC#C/C=C\CCCCCCCC(=O)O)oc1C [VI″, (Z)-14-(4,5-dimethylfuran-2-yl)tetradeca-9-en-11,13-diynoic acid]
MIC [9]: > 10.2 µg/mL | MIC [10]: > 10.2 µg/mL | MIC [8]: > 10.2 µg/mL | MIC [11]: > 10.2 µg/mL | MIC [12]: > 10.2 µg/mL | MIC [13]: > 10.2 µg/mL | MIC [14]: > 10.2 µg/mL | MIC [15]: > 10.2 µg/mL

CCCCCCCC/C=C\CCCCCCCC(=O)O [oleic acid, reference compound]
Doubling time [16]: 2.0 h | Doubling time ([16]; sodium salt): 2 h | decrease of the expression level of OLE1 [17]: about 6 fold

— US8722910B2, “Diyne compositions” (Evolva AG, priority 2009, dated 2014)
